Literature values, collected in patent publication US20050271754A1, “Composition for prevention or treatment of an alcohol hangover” (priority 2004, published 2005).

Test system: acetaldehyde levels in the blood, liver and brain
Conditions: increases the oxidation cycle of ethanol

N[C@@H](CS)C(=O)O [L-cysteine]
acetaldehyde levels in the blood, liver and brain: lowering acetaldehyde levels
